Experimental data taken from ChEMBL document CHEMBL1201862, “PubChem BioAssay data set” (2004).
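In this assay, cells in 96-well plates receive the compound at five concentrations for 48 hours. Endpoints are linearly interpolated between the surrounding concentrations. GI50 is the concentration that inhibits growth by half.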 Calls of active or inactive are those of the source. Rule as the data show it: active = GI50 up to about 1.1 µM and inactive = higher.

Assays:
Assay in all cases: NCI-60 cell line screen, 48 h
[1] = test system: Malme-3M
[2] = test system: A549
[3] = test system: NCI-H522
[4] = test system: NCI-H226
[5] = test system: HT-29
[6] = test system: LXFL 529
[7] = test system: KM12
[8] = test system: SK-OV-3
[9] = test system: SF-539
[10] = test system: SF-295
[11] = test system: OVCAR-3
[12] = test system: CAKI-1
[13] = test system: M19-MEL
[14] = test system: HOP-18
[15] = test system: DMS-114
[16] = test system: KM-20L2
[17] = test system: HOP-62
[18] = test system: SK-MEL-2
[19] = test system: COLO 205
[20] = test system: XF498
[21] = test system: RXF 393
[22] = test system: HCC 2998
[23] = test system: CCRF-CEM
[24] = test system: IGROV-1
[25] = test system: SNB-75
[26] = test system: UACC-62
[27] = test system: SW-620
[28] = test system: DLD-1
[29] = test system: U-251
[30] = test system: LOX IMVI
[31] = test system: SK-MEL-28
[32] = test system: DMS-273
[33] = test system: 786-0
[34] = test system: NCI-H460
[35] = test system: SK-MEL-5
[36] = test system: HL-60
[37] = test system: NCI-H23
[38] = test system: RXF 631
[39] = test system: OVCAR-5
[40] = test system: EKVX
[41] = test system: HCT-116
[42] = test system: OVCAR-8
[43] = test system: MOLT-4
[44] = test system: TK-10
[45] = test system: SNB-78
[46] = test system: SF-268
[47] = test system: UO-31
[48] = test system: ACHN
[49] = test system: SN12C
[50] = test system: K562
[51] = test system: OVCAR-4
[52] = test system: HOP-92
[53] = test system: HCT-15
[54] = test system: UACC-257
[55] = test system: SNB-19
[56] = test system: M14
[57] = test system: SR
[58] = test system: RPMI-8226

Compound: CC1Nc2ccccc2NC1C=C(C#N)C#N (stereo not given)
- GI50 [1]: 16.7 µM (inactive)
- GI50 [2]: 22.8 µM (inactive)
- GI50 [3]: 10.9 µM (inactive)
- GI50 [4]: 17.3 µM (inactive)
- GI50 [5]: 16.7 µM (inactive)
- GI50 [6]: 13 µM (inactive)
- GI50 [7]: 16.5 µM (inactive)
- GI50 [8]: 21.8 µM (inactive)
- GI50 [9]: 13.2 µM (inactive)
- GI50 [10]: 15.5 µM (inactive)
- GI50 [11]: 15.8 µM (inactive)
- GI50 [12]: 14.1 µM (inactive)
- GI50 [13]: 15 µM (inactive)
- GI50 [14]: 20 µM (inactive)
- GI50 [15]: 19.8 µM (inactive)
- GI50 [16]: 16.3 µM (inactive)
- GI50 [17]: 20.4 µM (inactive)
- GI50 [18]: 21.3 µM (inactive)
- GI50 [19]: 18.7 µM (inactive)
- GI50 [20]: 17.1 µM (inactive)
- GI50 [21]: 16.6 µM (inactive)
- GI50 [22]: 18.4 µM (inactive)
- GI50 [23]: 2.72 µM (inactive)
- GI50 [24]: 18.1 µM (inactive)
- GI50 [25]: 14.6 µM (inactive)
- GI50 [26]: 16.1 µM (inactive)
- GI50 [27]: 12.2 µM (inactive)
- GI50 [28]: 14.4 µM (inactive)
- GI50 [29]: 16.1 µM (inactive)
- GI50 [30]: 11.3 µM (inactive)
- GI50 [31]: 16.6 µM (inactive)
- GI50 [32]: 12.2 µM (inactive)
- GI50 [33]: 16 µM (inactive)
- GI50 [34]: 19.4 µM (inactive)
- GI50 [35]: 17.1 µM (inactive)
- GI50 [36]: 1.85 µM (inactive)
- GI50 [37]: 17.2 µM (inactive)
- GI50 [38]: 11.9 µM (inactive)
- GI50 [39]: 18.9 µM (inactive)
- GI50 [40]: 19.5 µM (inactive)
- GI50 [41]: 13.5 µM (inactive)
- GI50 [42]: 7.76 µM (inactive)
- GI50 [43]: 5.96 µM (inactive)
- GI50 [44]: 19.6 µM (inactive)
- GI50 [45]: 15.3 µM (inactive)
- GI50 [46]: 14.7 µM (inactive)
- GI50 [47]: 15 µM (inactive)
- GI50 [48]: 18.3 µM (inactive)
- GI50 [49]: 15.6 µM (inactive)
- GI50 [50]: 8.32 µM (inactive)
- GI50 [51]: 15.9 µM (inactive)
- GI50 [52]: 15.1 µM (inactive)
- GI50 [53]: 17.4 µM
- GI50 [54]: > 10 µM (inactive)
- GI50 [55]: 17.9 µM (inactive)
- GI50 [56]: 11.9 µM (inactive)
- GI50 [57]: 5.61 µM (inactive)
- GI50 [58]: 4.58 µM (inactive)

Compound: Cn1c(=O)c(C2c3ccccc3Oc3c2c(=O)n(C)c2ccccc32)c(O)c2ccccc21 (stereo not given)
- GI50 [1]: 73.5 µM (inactive)
- GI50 [2]: 72.6 µM (inactive)
- GI50 [3]: 24.3 µM (inactive)
- GI50 [4]: 46 µM (inactive)
- GI50 [5]: 92.7 µM (inactive)
- GI50 [6]: 47.9 µM (inactive)
- GI50 [7]: 69.8 µM (inactive)
- GI50 [8]: 63.8 µM (inactive)
- GI50 [9]: 76.2 µM (inactive)
- GI50 [10]: 54.5 µM (inactive)
- GI50 [11]: 52 µM (inactive)
- GI50 [12]: 46.9 µM (inactive)
- GI50 [13]: > 100 µM (inactive)
- GI50 [14]: > 100 µM (inactive)
- GI50 [15]: 49.1 µM (inactive)
- GI50 [16]: 59 µM (inactive)
- GI50 [17]: > 100 µM (inactive)
- GI50 [18]: 61.7 µM (inactive)
- GI50 [19]: 30.6 µM (inactive)
- GI50 [20]: 26.9 µM (inactive)
- GI50 [21]: 63 µM (inactive)
- GI50 [22]: 44.3 µM (inactive)
- GI50 [24]: 59.2 µM (inactive)
- GI50 [25]: 40.9 µM (inactive)
- GI50 [26]: 44.9 µM (inactive)
- GI50 [27]: 43.9 µM (inactive)
- GI50 [28]: 50.9 µM (inactive)
- GI50 [29]: 41.2 µM (inactive)
- GI50 [30]: 37.9 µM (inactive)
- GI50 [31]: 86.9 µM (inactive)
- GI50 [32]: 68.7 µM (inactive)
- GI50 [33]: 27.2 µM (inactive)
- GI50 [34]: > 100 µM (inactive)
- GI50 [35]: > 100 µM (inactive)
- GI50 [36]: 30.1 µM (inactive)
- GI50 [37]: 40.6 µM (inactive)
- GI50 [38]: 58.2 µM (inactive)
- GI50 [39]: > 100 µM (inactive)
- GI50 [40]: 41.2 µM (inactive)
- GI50 [41]: 43.2 µM (inactive)
- GI50 [42]: > 100 µM (inactive)
- GI50 [43]: 39.4 µM (inactive)
- GI50 [44]: 33.3 µM (inactive)
- GI50 [45]: 53.3 µM (inactive)
- GI50 [46]: 66.4 µM (inactive)
- GI50 [47]: 73.5 µM (inactive)
- GI50 [48]: 39.8 µM (inactive)
- GI50 [49]: 46.7 µM (inactive)
- GI50 [50]: 51.2 µM (inactive)
- GI50 [51]: 86.7 µM (inactive)
- GI50 [52]: 42.9 µM (inactive)
- GI50 [53]: 32.4 µM
- GI50 [54]: 24.1 µM (inactive)
- GI50 [55]: 44.4 µM (inactive)
- GI50 [56]: 60 µM (inactive)
- GI50 [57]: 42.1 µM (inactive)
- GI50 [58]: 38.5 µM (inactive)
